Results on 6 compounds are retold here after ChEMBL document CHEMBL1201862, “PubChem BioAssay data set” (2004).

What all share (assay): NCI anticancer screen, dose series, 48 h
Test [1] relates to SN12C.
Test [2] concerns SK-MEL-28.
The subject of test [3] is OVCAR-4.
The test system of test [4] is SNB-19.
The test system of test [5] is TK-10.
The subject of test [6] is CAKI-1.
The test system of test [7] is KM12.
Test [8] has as its system HCT-15.
The subject of test [9] is SF-268.
In test [10] the test system is OVCAR-8.
Test [11] deals with T47D.
The test system of test [12] is HOP-92.
Test [13] relates to NCI-H226.
In test [14] the test system is SK-MEL-5.
For test [15], the system named is MDA-MB-435.
Test [16] relates to U-251.
Test [17] has as its system COLO 205.
Test [18] concerns EKVX.
Test [19] deals with UO-31.
The test system of test [20] is A498.

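Briefly, cells in 96-well plates were exposed to five compound concentrations for 48 h, and endpoints were estimated by linear interpolation. GI50: concentration for 50% inhibition of growth.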 The source made the active and inactive calls. Rule as the data show it: active = GI50 up to about 1.1 µM and inactive = higher.

Turning to `NC(=O)C[C@H](NC(=O)C1(NC(=O)[C@H](Cc2ccc(CP(=O)(O)O)cc2)NC(=O)C(=O)O)CCCCC1)C(=O)NCCCc1cccc2ccccc12`, the GI50 in test [1], in [2], in test [3], in test [4], in test [5] and in test [6] was > 10 µM (inactive) throughout. The GI50 in test [7] is > 10 µM (inactive); in test [8], more than 10 µM; in test [9] it was > 10 µM (inactive); in test [10], > 10 µM (inactive); in test [11], > 10 µM (inactive); in [12] it was > 10 µM (inactive). Also, the GI50 in test [13] was 7.45 µM (inactive); in [14], > 10 µM (inactive); in [15] it was > 10 µM (inactive); in test [16], > 10 µM (inactive); in [17] it was > 10 µM (inactive); in test [18] it was > 10 µM (inactive). Besides, the GI50 in test [19] and in test [20] was > 10 µM (inactive) each time.
Regarding `Cc1cccc2c(N)c3cccc(C(=O)NCC[N+](C)(C)Cc4ccc([N+](=O)[O-])s4)c3nc12`, the GI50 is 0.424 µM (active) in test [1]; 33 µM (inactive) in test [2]; 8.15 µM (inactive) in test [3]; 3.22 µM (inactive) in [4]; 20.4 µM (inactive) in [5]; 2.37 µM (inactive) in test [6]. In addition, the GI50 in test [7] was 9.06 µM (inactive); in test [8] it was 3.74 µM; in [9], 4.78 µM (inactive); in test [10] it was 9.29 µM (inactive); in test [11] it was 13.6 µM (inactive); in [12] it was 16 µM (inactive). Also, the GI50 in test [13] was 6.68 µM (inactive); in [14], 11.6 µM (inactive); in test [15], 21.9 µM (inactive); in test [16] it was 2.91 µM (inactive); in test [17], 4.9 µM (inactive); in [18] it was 14.1 µM (inactive). Besides, the GI50 was 11.4 µM (inactive) in [19] and 4.65 µM (inactive) in test [20].
For the compound `O=Cc1ccc(-c2cc(C=O)c(-c3cccs3)[nH]2)s1`, the GI50 in test [1] is 53.6 µM (inactive); in test [2], 36.3 µM (inactive); in test [3] it was 26 µM (inactive); in test [4], 44.9 µM (inactive); in test [5], 24.4 µM (inactive); in test [6] it was 9.4 µM (inactive). In addition, the GI50 in [7] is 25.8 µM (inactive); in test [8] it was 24.8 µM; in test [9], > 75 µM (inactive); in test [10] it was 21.4 µM (inactive); in test [11], 8.85 µM (inactive); in test [12], 32.7 µM (inactive). Besides, the GI50 was 4.76 µM (inactive) in [13]; 23 µM (inactive) in test [14]; 25.6 µM (inactive) in test [15]; 18.7 µM (inactive) in test [16]; 25.1 µM (inactive) in test [17]; 40 µM (inactive) in [18]. The GI50 is 26.6 µM (inactive) in [19] and 2.6 µM (inactive) in test [20].
Regarding `CC1CC[C@@]2(OC1)O[C@H]1[C@H](O)[C@H]3[C@@H]4CC[C@H]5C[C@@H](OC6OC(CO)C(OC7OC(CO)C(O)C(OC8OCC(O)C(O)C8O)C7OC7OC(CO)C(O)C(O)C7OC7OC(CO)C(O)C(O)C7O)C(O)C6O)[C@H](O)C[C@]5(C)[C@H]4CC[C@]3(C)[C@H]1[C@@H]2C` (stereo not given in full), the GI50 in [1] was 3.89 µM (inactive); in [2], > 10 µM (inactive); in test [3], 7.08 µM (inactive); in test [4], 9.35 µM (inactive); in test [5], > 10 µM (inactive); in [6], > 10 µM (inactive). In addition, the GI50 was 4.29 µM (inactive) in test [7]; more than 10 µM in test [8]; > 10 µM (inactive) in test [9]; > 10 µM (inactive) in test [10]; > 10 µM (inactive) in test [11]; > 10 µM (inactive) in test [12]. Besides, the GI50 is > 10 µM (inactive) in test [13]; > 10 µM (inactive) in test [14]; > 10 µM (inactive) in test [15]; 5.01 µM (inactive) in test [16]; > 10 µM (inactive) in test [17]; > 10 µM (inactive) in test [18]. For the same compound, the GI50 in test [19] is 4.18 µM (inactive); in test [20], > 10 µM (inactive).
Take `Oc1nc(-c2cccc(F)c2)nc2ccccc12`: the GI50 in test [1] is > 49.9 µM (inactive); in [2], > 76.7 µM (inactive); in test [3] it was 25 µM (inactive); in [4] it was 19.9 µM (inactive); in test [5] it was 34.6 µM (inactive); in test [6] it was > 100 µM (inactive). Further, the GI50 in test [7] is > 79.6 µM (inactive); in test [8], more than 100 µM; in test [9], 27.1 µM (inactive); in test [10] it was 29.8 µM (inactive); in [11], > 100 µM (inactive); in test [12] it was 30.7 µM (inactive). Further, the GI50 is > 100 µM (inactive) in test [13]; > 67.1 µM (inactive) in [14]; > 86.1 µM (inactive) in [15]; 36.5 µM (inactive) in test [16]; > 100 µM (inactive) in test [17]; > 67.3 µM (inactive) in [18]. Moreover, the GI50 was 30.8 µM (inactive) in test [19] and 30.3 µM (inactive) in test [20].
As to `COC1OC(=O)C(OC)C(OC)C1OC` (stereo not given), the GI50 in test [1], in test [2], in test [3], in test [4], in [5] and in test [6] was > 100 µM (inactive) each time. Moreover, the GI50 is > 100 µM (inactive) in [7]; more than 100 µM in [8]; > 100 µM (inactive) in [9]; 88.3 µM (inactive) in test [10]; > 100 µM (inactive) in [11]; > 100 µM (inactive) in [12]. The GI50 in test [13], in test [14], in test [15], in [16], in test [17] and in test [18] was > 100 µM (inactive) each time. The GI50 in [19] and in [20] was > 100 µM (inactive) throughout.
